The values below come from PubChem BioAssay (NCI).

Test in all cases: NCI tumour cell line growth inhibition, 48 h
Test [1] deals with MOLT-4 leukemia.
Test [2] concerns DU-145 prostate.
Test [3] has as its system SF-268 CNS.
For test [4], the system named is COLO 205 colon.
For test [5], the system named is CAKI-1 renal.
The test system of test [6] is OVCAR-8 ovarian.
The subject of test [7] is HCT-15 colon.
Test [8] concerns MALME-3M melanoma.
For test [9], the system named is PC-3 prostate.
Test [10] deals with HL-60(TB) leukemia.
Test [11] deals with SK-MEL-28 melanoma.
In test [12] the test system is NCI/ADR-RES ovarian.
Test [13] relates to A549 NSCLC.
Test [14] concerns T-47D breast.
For test [15], the system named is NCI-H23 lung.
Test [16] relates to NCI-H460 lung.
In test [17] the test system is HCC-2998 colon.
For test [18], the system named is TK-10 renal.
Test [19] relates to UO-31 renal.
In test [20] the test system is RPMI-8226 leukemia.

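These data come from cells grown in 96-well plates and exposed to compound for 48 hours at five concentrations. TGI marks complete inhibition of growth.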

Turning to `Cc1cc(-c2ccc(Cl)cc2)c(C#N)c(=S)n1C1OC(CO)C(O)C(O)C1O` (stereo unspecified), the TGI in [1], in [2], in [3], in test [4], in test [5] and in [6] was over 100 µM throughout. Besides, the TGI in [7], in [8], in [9], in [10], in test [11] and in [12] was over 100 µM each time. Further, the TGI in test [13], in [14], in test [15], in test [16], in test [17] and in [18] was over 100 µM in each case.

For `COc1ccc(C2Oc3c(cccc3OC)C=C2[N+](=O)[O-])cc1` (stereo unspecified), the TGI in test [1] was 6.86 µM; in test [2], 16.4 µM; in test [3], 11.3 µM; in [19], 3.14 µM; in test [4], 6.95 µM; in test [5], 4.31 µM. The TGI in test [6] was 11.2 µM; in [7], 5.81 µM; in test [8], 10 µM; in [9], 5.16 µM; in test [10], over 100 µM; in test [11], 4.37 µM. In addition, the TGI in test [12] was 14.5 µM; in test [13], 26.4 µM; in test [14], 27.7 µM; in test [15], 12.4 µM; in test [20], over 100 µM; in test [16] it was 4.15 µM. In addition, the TGI in test [18] came out at 7.5 µM.

Regarding `CC(C)(Cc1ccccc1)Cc1cc(O)ccc1O`, the TGI is 49.5 µM in test [1]; over 100 µM in [2]; 35.7 µM in test [3]; 26.3 µM in test [19]; 39.1 µM in [4]; 35.1 µM in [5]. The TGI is 40.7 µM in test [6]; 39.8 µM in [7]; 33.2 µM in [8]; over 100 µM in test [9]; 4.8 µM in test [10]; 47.2 µM in test [11]. The TGI in test [12] is 42.9 µM; in test [13], over 100 µM; in test [14], 23.1 µM; in [15], 38.7 µM; in [16], 37.4 µM; in test [17], 39.1 µM. Besides, the TGI in test [18] was found to be 95.9 µM.

Take `CC1(CC(=O)OC(C#C[Si](C)(C)C)Cc2ccccc2)OCCO1` (stereo unspecified): the TGI in test [1], in [2], in [3], in test [19], in test [4] and in test [5] was over 100 µM each time. For the same compound, the TGI in test [6], in [7], in test [8], in [9], in test [10] and in [11] was over 100 µM in each case. Moreover, the TGI in [12], in test [13], in test [14], in test [15] and in test [18] was over 100 µM throughout.

Consider `Nc1nc(Cl)cc(NCC2(CO)CCC(OCc3ccccc3)C2)n1` (stereo unspecified), for which the TGI was 34.3 µM in test [1]; over 100 µM in test [2]; over 100 µM in test [3]; 99.4 µM in test [19]; 62.7 µM in [4]; 45.1 µM in test [5]. In addition, the TGI in test [6] is over 100 µM; in [7] it was over 100 µM; in test [8], 97.2 µM; in test [9] it was 33 µM; in test [10] it was 86.8 µM; in [11] it was over 100 µM. Further, the TGI in test [12] is 25 µM; in test [13] it was over 100 µM; in test [14] it was 52.7 µM; in test [15], 43.8 µM; in test [20], over 100 µM; in test [16], over 100 µM. Besides, the TGI in test [18] is 60.5 µM.

As for `N=C(N)c1ccc(-c2ccc(-c3ccc(C(=N)N)cc3)o2)cc1`, the TGI is 77.5 µM in test [1]; over 100 µM in test [2]; over 100 µM in test [3]; 68.1 µM in test [19]; 43.2 µM in test [4]; over 100 µM in [5]. Besides, the TGI in test [6] was over 100 µM; in test [7], over 100 µM; in [8] it was over 100 µM; in test [9], over 100 µM; in test [10], over 100 µM; in [11], 71.7 µM. For the same compound, the TGI in test [12] is over 100 µM; in test [13], over 100 µM; in test [14], 74.9 µM; in test [15], 87 µM; in test [20], over 100 µM; in test [16], 40 µM. Moreover, the TGI in test [18] was determined as 63 µM.

For `CO[C@H]1C[C@H](O[C@H]2CC[C@]3(C=O)[C@H]4CC[C@]5(C)[C@@H](C6=CC(=O)OC6)CC[C@]5(O)[C@@H]4CC[C@]3(O)C2)O[C@H](C)[C@H]1O[C@@H]1O[C@H](CO[C@@H]2O[C@H](CO)[C@@H](O)[C@H](O)[C@H]2O)[C@@H](O)[C@H](O)[C@H]1O`, the TGI is 1.07 µM in test [1]; 0.0413 µM in [2]; 0.164 µM in test [3]; 0.144 µM in test [19]; 0.348 µM in test [4]; 0.0456 µM in test [5]. For the same compound, the TGI in [6] is 0.167 µM; in test [7], 0.144 µM; in test [8], 0.243 µM; in test [9], 0.33 µM; in test [10], 0.2 µM; in test [11] it was 1.15 µM. Also, the TGI in [12] is 0.15 µM; in [13], 0.0254 µM; in test [14] it was 0.385 µM; in test [15], 0.0531 µM; in test [16], 0.0425 µM; in [18], 0.133 µM.

As for `Cc1ccc(OCCn2cc(Nc3ccccc3)c(=O)[nH]c2=O)cc1`, the TGI in [1], in [2], in [3], in [19], in test [4] and in test [5] was over 100 µM each time. Besides, the TGI in test [6], in test [7], in test [8], in test [9], in [11] and in test [12] was over 100 µM throughout. The TGI in [13], in test [14], in test [15], in test [20], in test [16] and in [17] was over 100 µM throughout. The compound also had a TGI in test [18] of over 100 µM.

Regarding `CO/N=C/c1c(-c2ccc(Cl)cc2)c(/C=N/OC)n2c1sc1ccccc12`, the TGI in [1], in test [2], in [3], in [19], in [4] and in test [5] was over 100 µM in each case. Further, the TGI in [6], in test [7], in test [8], in [9], in test [10] and in [11] was over 100 µM each time. The TGI in [12], in test [13], in [14], in [15], in test [16] and in test [17] was over 100 µM throughout. In addition, the TGI in test [18] is over 100 µM.

For `O=C(NC1CCN(Cc2ccccc2)CC1)c1ccccc1I`, the TGI in test [1] is 55.1 µM; in test [2], over 100 µM; in [3] it was over 100 µM; in [19], 30.1 µM; in test [4], 34.8 µM; in test [5], over 100 µM. Also, the TGI is over 100 µM in test [6]; 36.7 µM in test [7]; 31.6 µM in test [8]; 98.8 µM in test [9]; over 100 µM in [10]; 36.5 µM in [11]. The TGI in [12] was 92.3 µM; in test [13], over 100 µM; in test [14], 66.1 µM; in test [15], 72.1 µM; in test [20], over 100 µM; in test [16], 67.7 µM. The TGI in test [18] was found to be 63.6 µM.

Consider `CC[C@]12C=CCN3CCC4(c5cc(N=Nc6ccc([N+](=O)[O-])cc6)c(OC)cc5N(C)[C@H]4[C@@](O)(C(=O)OC)[C@@H]1OC(C)=O)[C@@H]32` (stereo partly specified), for which the TGI in [1] was 13.1 µM; in test [2], over 100 µM; in test [3] it was over 100 µM; in test [19], 25.9 µM; in test [4] it was 42.5 µM; in test [5] it was 50 µM. The TGI in test [6] is over 100 µM; in test [7], 57.8 µM; in test [8], 36.9 µM; in test [9], 46.1 µM; in test [10], 28.1 µM; in test [11] it was over 100 µM. Moreover, the TGI in test [12] was 42.2 µM; in test [13] it was over 100 µM; in [14], over 100 µM; in test [15], 32.4 µM; in test [20], 46.1 µM; in [16], over 100 µM. Besides, the TGI in [18] is 63 µM.

As to `O=c1[nH][nH]c(=S)c(=O)[nH]1`, the TGI in test [1], in test [2], in test [3], in [19], in [4] and in [5] was over 100 µM each time. Besides, the TGI in test [6], in test [7], in test [8], in [9], in test [10] and in test [11] was over 100 µM in each case. Moreover, the TGI in test [12], in [13], in test [14], in test [15], in test [20] and in test [16] was over 100 µM in each case. The TGI in [18] was over 100 µM.

Regarding `CCOC(=O)c1cc(C2(OC)CCN(Cc3ccccc3)C2=O)c(-c2cc(C)no2)[nH]1` (stereo unspecified), the TGI in test [1], in [2], in test [3], in test [19], in [4] and in test [5] was over 100 µM throughout. In addition, the TGI in [6], in test [7], in test [8], in test [9], in test [11] and in [12] was over 100 µM each time. Besides, the TGI in test [13], in [14], in test [15], in test [20], in test [16] and in test [17] was over 100 µM in each case. Besides, the TGI in test [18] was over 100 µM.

On to `CC(C)(C)OC(=O)N1C(=O)OC[C@@H]2C=C[C@@H]21`, for which the TGI in [1], in [2], in test [3], in [4], in [5] and in [6] was over 100 µM in each case. The TGI in test [7], in test [8], in test [9], in test [10], in test [11] and in test [12] was over 100 µM throughout. Further, the TGI in test [13], in test [14], in test [15], in test [20], in test [16] and in test [18] was over 100 µM each time.
